What was measured:
isolated rat liver cells = assay: In vitro cytotoxicity: effects on metabolic competence of isolated rat liver cells; format: cell-based
Procedure: The cytotoxicity of the compound of the invention was investigated in vitro by studying its effects on the metabolic competence of isolated rat liver cells. […] A 15% decrease in ATP levels was observed after 90 minutes at a concentration of 100µM.

ACAT = target: T1, ACAT (Homo sapiens, UniProt P35610); assay: In vitro inhibition of ACAT (radiometric, [14C]oleoyl CoA substrate, microsomal protein); format: biochemical; details: enzyme derived from human embryo 407 intestinal epithelial cell line, 37°C, pH 7.0, 4 minutes, read-out: IC₅₀ for ACAT inhibition
T1 construct: Microsomal protein is therefore used as the source of both ACAT and cholesterol; endogenous in cells; host or cells: human embryo 407 intestinal epithelial cell line (microsomal fraction)
T1 sequence (P35610 1-550): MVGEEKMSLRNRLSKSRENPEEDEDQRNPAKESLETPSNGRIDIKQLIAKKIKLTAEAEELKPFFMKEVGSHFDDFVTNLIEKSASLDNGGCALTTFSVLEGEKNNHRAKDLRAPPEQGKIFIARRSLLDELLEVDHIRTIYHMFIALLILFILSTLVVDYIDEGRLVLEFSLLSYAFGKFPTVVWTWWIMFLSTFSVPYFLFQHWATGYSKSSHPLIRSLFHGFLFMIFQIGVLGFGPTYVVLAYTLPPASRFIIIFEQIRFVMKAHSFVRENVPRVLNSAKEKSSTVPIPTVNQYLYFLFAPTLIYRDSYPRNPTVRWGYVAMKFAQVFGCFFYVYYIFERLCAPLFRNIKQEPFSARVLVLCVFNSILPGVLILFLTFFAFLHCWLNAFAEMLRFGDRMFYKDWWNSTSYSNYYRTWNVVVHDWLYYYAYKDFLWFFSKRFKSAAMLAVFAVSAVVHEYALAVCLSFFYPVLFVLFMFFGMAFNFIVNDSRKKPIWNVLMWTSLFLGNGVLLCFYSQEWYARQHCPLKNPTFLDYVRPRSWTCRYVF
Procedure: In vitro inhibition of ACAT
The in vitro esterification of cholesterol in the presence of ACAT and the test compound was assayed radiometrically using [¹⁴C]oleoyl CoA as substrate: [¹⁴C]oleoyl CoA + cholesterol → [¹⁴C]oleoyl cholesterol + CoASH [formula]
The enzyme is membrane-associated in vivo. Microsomal protein is therefore used as the source of both ACAT and cholesterol. The compound of the invention was tested against enzyme derived from human embryo 407 intestinal epithelial cell line.
[¹⁴C]Oleoyl CoA was incubated with microsomal protein at 37°C, pH 7.0, in the presence of various concentrations of the test compound. After 4 minutes, the reaction was stopped by the addition of ice-cold chloroform/methanol containing a known amount of [³H]oleoyl cholesterol to compensate for the loss of any [¹⁴C] product. A known volume of the resulting lower phase, which contains lipidic material from the reaction, was dried, redissolved in hexane containing unlabelled oleoyl cholesterol (TLC marker) and run on a quantitative TLC plate (silica gel). The oleoyl cholesterol spot was visualised (iodine vapour), removed from the TLC plate and its radioactivity measured by scintillation counting.
A plot of ACAT inhibitory activity vs concentration was prepared for the test compound and the corresponding IC₅₀ determined.

IC50 (ACAT): 22 nM
Compound: CCCCCCCNC(=O)Nc1c(F)cc(F)cc1CCc1ccc(CC(C)(C)C)cc1 [compound of the invention, 1-[2,4-difluoro-6-{2-[4-(2,2-dimethylpropyl)phenyl]ethyl}phenyl]-3-heptylurea]
decrease in ATP levels (isolated rat liver cells; after 90 minutes at a concentration of 100µM): 15% | effect on gluconeogenesis (isolated rat liver cells; concentrations of up to 100µM): No effect

From patent EP0450660B1, “Anti-atherosclerotic diaryl compound” (THE WELLCOME FOUNDATION LIMITED, priority 1988, dated 1990)
